Results: patent US12448358B2, “Inhibitors of protein arginine deiminase 1 and methods of preparation and use thereof” (University of Massachusetts, priority 2019, dated 2025)

Target: T1, PAD1 (Homo sapiens, UniProt Q9ULC6)
T1 construct: made in house
T1 sequence (Q9ULC6 1-663): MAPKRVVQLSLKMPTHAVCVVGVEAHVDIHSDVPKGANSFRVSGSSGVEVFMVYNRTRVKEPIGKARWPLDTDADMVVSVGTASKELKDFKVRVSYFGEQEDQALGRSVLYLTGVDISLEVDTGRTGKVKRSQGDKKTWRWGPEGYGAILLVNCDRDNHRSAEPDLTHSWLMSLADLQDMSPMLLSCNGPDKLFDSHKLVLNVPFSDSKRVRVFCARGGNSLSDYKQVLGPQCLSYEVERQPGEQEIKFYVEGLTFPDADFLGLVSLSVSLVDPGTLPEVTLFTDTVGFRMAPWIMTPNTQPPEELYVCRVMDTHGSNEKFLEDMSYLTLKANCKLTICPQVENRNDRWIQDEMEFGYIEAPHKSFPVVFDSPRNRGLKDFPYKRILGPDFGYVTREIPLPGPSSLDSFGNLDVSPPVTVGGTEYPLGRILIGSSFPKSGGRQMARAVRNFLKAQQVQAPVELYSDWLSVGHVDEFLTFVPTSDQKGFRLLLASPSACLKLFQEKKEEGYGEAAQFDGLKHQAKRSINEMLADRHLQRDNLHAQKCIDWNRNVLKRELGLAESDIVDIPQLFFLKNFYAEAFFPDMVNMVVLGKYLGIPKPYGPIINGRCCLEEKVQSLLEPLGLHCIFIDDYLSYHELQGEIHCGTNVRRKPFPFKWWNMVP
Assay: Streptavidin enrichment and ReDiMe proteomics of proteins labelled by probe in HEK293TPAD1 cells (PAD1)
Assay type: cell-based
Conditions: 5 μM probe versus control
Description: Enrichment of Proteins Labelled by 21 in HEK293TPAD1 Cells on Streptavidin-agarose. HEK293TPAD1 cells were cultured in 175 cm^2 T-175 flasks in DMEM (supplemented with 10% heat-inactivated fetal bovine serum, 100 units/mL penicillin, 100 μg/mL streptomycin and 0.15 mg/mL hygromycin B). Upon reaching ˜90% confluence, cells were treated with 1 mM CaCl2, 5 μM ionomycin and 5 μM of 21 (or equal volume of DMSO for control) in serum-free DMEM for 3 h. Then the cells were scraped, harvested by centrifugation at 3,000 rpm for 5 min and resuspended in 1×PBS. Cell lysis was performed by probe sonication and soluble proteins in the lysates were quantified by DC Assay (Bio-Rad). Endogenous biotinylated proteins were precleared by incubating the lysates with streptavidin-agarose beads (25 μL for 1 mg of total protein in the lysate) at room temperature for 1 h with constant mixing on an end-over-end shaker. The mixture was centrifuged (1200 g, 3 minute) to separate the beads and the supernatant (pre-cleared lysate). Pre-cleared lysates (2 mg/mL, 500 μL final) were clicked with Biotin-N3 (100 μM), TCEP (1.5 mM), TBTA (0.3 mM) and freshly prepared CuSO4 (4 mM), and the tubes were gently tumbled at room temperature for 2 h. The precipitated proteins were collected by centrifugation at 5,000 rpm for 10 min. […]

## C#Cc1c(I)cc(C(=O)N[C@@H](CCCNC(=N)CF)c2nc3ccccc3[nH]2)c(O)c1I [Compound 21]
  Enrichment ratio (heavy/light) of PAD1: ~20
